# Experimental data from patent US20050255147A1, “Composition for dietary enrichment” (ZOOLIFE INTERNATIONAL LIMITED, priority 2002, published 2005).
# Tested on: clown fish
# Test: Skin coloration of clown fish on supplemented diet
# Assay type: in vivo
# Conditions: synthetic astaxanthin 1000 mg/kg granulated diet, compositions below 50 mg/kg astaxanthin in final feed
smiles,measurement,value
"CC1=C(/C=C/C(C)=C/C=C/C(C)=C/C=C/C=C(C)/C=C/C=C(C)/C=C/C2=C(C)C(=O)[C@@H](O)CC2(C)C)C(C)(C)C[C@H](O)C1=O [synthetic astaxanthin, astaxanthin]",skin coloration,do not to significantly alter skin coloration
